Data reported in patent publication US20150126464A1, “THERAPEUTIC DRUG AND THERAPEUTIC METHOD FOR NEUROLOGICAL DISEASES INCLUDING ALZHEIMER'S DISEASE ASSOCIATED WITH 1,25D3-MARRS” (priority 2013, published 2015).
Where a name gives a salt, the structure may show the parent alone.

Key:
5XFAD mice [1] = assay: Novel object recognition test in 5XFAD mice (Alzheimer's disease model); assay type: in vivo, mouse
Description: Transgenic mice (5XFAD) as an animal model of AD were obtained from the Jackson Laboratory (Bar Harbor, Me., USA). The 5XFAD mice overexpress human APP695 cDNA having Swedish mutation (K670N and M671L), Florida mutation (I716V) and London mutation (V717I) and human PS1 cDNA (M146L and L286V) under the transcriptional control of the neuron-specific mouse Thy-1 promoter (Oakley, H. et al., J Neurosci, 26, 10129-10140, 2006). They were maintained by crossing hemizygous transgenic mice with B6/SJL F1 breeders.
To investigate the effect of diosgenin on 5XFAD, hemizygous 5XFAD mice (female, 6 to 8 months old) and non-transgenic littermate wild-type mice (female, 6 to 8 months old) were used. These mice were obtained by crossing hemizygous 5XFAD mice and B6/SJL F1 mice. All mice were housed with free access to food and water and were kept in a controlled environment (22±2° C., 50±5% humidity, 12-h light/dark cycle starting at 7:00 am).
Diosgenin was dissolved in dimethyl sulfoxide (DMSO) at 10 times the final concentration to give a stock solution. The stock solution was diluted in physiological saline to the final concentration immediately before treatment. The diosgenin solution was intraperitoneally administered to 5XFAD mice once a day (10 μmol/kg=4.14 mg/kg) for 20 days. On the last day of administration (Day 20), each mouse was housed in a separate open-field box made of polyvinyl chloride (33 cm×[…]; height: 26.5 cm) and habituated to the environment for 10 min. […]
For each mouse of Example 1, Comparative Examples 1 and 2, and Reference Example 1, the path during the 10-minute habituation was tracked using a digital camera system. The distance each mouse traveled during the 10 minutes was analyzed as locomotion activity with EthoVision 3.0 (Noldus, Wageningen, The Netherlands). […] In the present invention, the ratio (%) of the exploration time for the novel object to the total exploration time was calculated as an exploration preferential index. […]

5XFAD mice [2] = assay: Immunohistochemistry of brain slices of 5XFAD mice (amyloid plaques, PHF-tau, abnormal axons, presynapses); assay type: in vivo, mouse; conditions: vs vehicle-treated 5XFAD, diosgenin 10 μmol/kg, memantine hydrochloride 200 μmol/kg/day i.p. 20 days
Procedure: One day after the novel object recognition test, the mice were anesthetized and transcardially perfused with cold physiological saline. The brains were carefully removed from the skull, immediately immersed in 10 to 30% sucrose-PBS and stored at -80° C. The brains were cut in 20-μm successive coronal slices every 100 μm in the parietal area (bregma 1.4-2 mm) sections using a cryostat (C[…], Leica, Heidelberg, Germany). The slices were fixed with 4% paraformaldehyde and stained with a polyclonal antibody against Aβ (1-40/42) (1:300) (Chemicon, Temecula, Calif., USA), a monoclonal antibody against pNF-H (1:500) (Covance, Emeryville, Calif., USA), a monoclonal antibody against synaptophysin (1:500) (Sigma-Aldrich), and a monoclonal antibody against PHF-tau (Thermo Scientific, Rockford, Ill., USA) at 4° C. for 20 hours. […] Three successive brain slices of the frontal cortex and five successive slices of the hippocampus were captured from a mouse for quantification. Extracellular amyloid plaques were determined by the size (greater than 50 μm in width), and the area of amyloid plaques was measured using the image analyzing software ImageJ. The area of the pNF-H-positive abnormal bulb-like axons was measured using ImageJ for every amyloid plaque in the fluorescent images (324 μm×430 μm). The areas of the synaptophysin-positive presynaptic boutons in every amyloid plaque were measured in fluorescent images (324 μm×430 μm) using Image J. The areas of PHF-tau in every amyloid plaque and outer amyloid plaques were measured in fluorescent images (324 μm×430 μm) using ImageJ.

[3] = system: rat cortical neurons (SD E18); assay: Measurement of axon density in cortical neurons with or without 1,25D3-MARRS knockdown; conditions: 1 μM, 4 days, vs vehicle; for density of pNF-H-positive axons per MAP2-positive neuron, control groups: control (no 1,25D3-MARRS knockdown) cortical neurons; for density of pNF-H-positive axons per MAP2-positive neuron, 1,25D3-MARRS knockdown groups: neurons transfected with siRNA for 1,25D3-MARRS (400 nM)
Description: siRNAs were transfected into rat cortical neurons (SD E18) according to the manufacturer's protocol for nucleofection (Lonza, Bazel, Switzerland). […] Two days after the transfection, the cells were fixed and double-immunostained with a monoclonal antibody against a neuron marker MAP2a/2b (1:500, NeoMarker, Fremont, Calif., USA) and Ab099 clone, a specific antibody for 1,25D3-MARRS (1:500, provided by Dr. Nemere).
Twelve to fourteen images were captured. The lengths of the pNF-H-positive axons were measured using an image analyzer Neurocyte (Kurabo), which automatically traces and measures neurite length without measuring the cell bodies. The sum of the axon lengths was divided by the number of MAP2-positive neurons.
1,25D3-MARRS was knocked down using siRNA transfection. […] Two days after the siRNA transfection, denosomin (1 μM) or a vehicle solution was applied to the cells. Further, after 4-day incubation, the cells were double-immunostained for pNF-H and MAP2 to measure the axonal length per neuron.

[4] = Body weight during dioscin administration; assay type: in vivo, mouse
Procedure: (§1) Dioscin in an amount of 30 μmol/kg/day was orally administered to normal mice (ddY mice, male, 6 weeks old) for 4 days. Dioscin (Chromadex, Irvine, Calif., USA) was dissolved in ethanol at 10 times the final concentration to give a stock solution, and the stock solution was diluted in a 5% aqueous solution of glucose to the final concentration. One hour after the last administration, the mice were used in the test.
Dioscin (30 μmol/kg/day) was orally administered to 5XFAD mice (male, 20 weeks old) for 6 days. One hour after the last administration, the training session was initiated.

normal mice = assay: Novel object recognition test in normal mice; assay type: in vivo, mouse; conditions: normal ddY mice, dioscin 30 μmol/kg/day orally 4 days
Procedure: Diosgenin (Wako Pure Chemical Industries, Ltd., Osaka, Japan) was dissolved in ethanol at 10 times the final concentration to give a stock solution, and the stock solution was diluted in a 5% aqueous solution of glucose to the final concentration. The diosgenin solution was intraperitoneally administered to normal mice (ddY mice, male, 6 weeks old) once a day (10 μmol/kg/day) for 5 or 6 days. One hour after the last administration, each mouse was housed in a separate open-field box made of polyvinyl chloride (33 cm×28 cm; height: 26.5 cm), habituated to the environment for 10 minutes, and used in the test.
Using the mice of Example 8 and Comparative Example 11, a novel object recognition test was performed to evaluate the object recognition memory. Testing was carried out in a dimly illuminated room (100 lux). The test was performed as described in Joyashiki, E. et sl., Int J Neurosci, 121, 181-190, 2011 and Tohda, C. et al., Int J Neurosci, 121, 641-648, 2011, written by the inventors and others, except that the time interval between a training session and a test session was 48 hours. As a locomotion index, the path of each mouse was tracked using a digital camera system. The distance each mouse traveled during the 10 minutes was analyzed as locomotion activity with EthoVision 3.0 (Noldus, Wageningen, The Netherlands).
The diosgenin solution was intraperitoneally administered to normal mice (C57BL/6, male, 8 weeks old) (100 μmol/kg/day) for 14 days. On the day after the 14th administration, the mice were used in the test.
Using the mice of Example 9 and Comparative Example 12, the novel object recognition test was performed. The test was performed under the conditions as described above.
as §1, with “One hour after the last administration, the mice were used in the test.” left out

## CC12CC3CC(C)(C1)CC(N)(C3)C2 [memantine, Memantine hydrochloride, reference compound]
5XFAD mice [1]; i.p. once a day for 20 days, diosgenin 10 μmol/kg, memantine hydrochloride 200 μmol/kg/day, 30 min training-test interval
  novel object preferential index (exploration preferential index), test session: 50%
5XFAD mice [2]
  area of abnormal axons (swollen axon area) per amyloid plaque in the cerebral cortex: not significantly reduced
  area of abnormal axons (swollen axon area) per amyloid plaque in the hippocampus: inversely significantly increased
  total area of PHF-tau in the cerebral cortex: not significantly different
  total area of PHF-tau in the hippocampus: inversely significantly increased
  total area of amyloid plaques in the hippocampus: significantly reduced in the hippocampus

## C=C1/C(=C\C=C2/CCC[C@]3(C)[C@@H]([C@H](C)CCCC(C)(C)O)CC[C@@H]23)C[C@@H](O)C[C@@H]1O [DHVD3, 1α,25-dihydroxy vitamin D3, reference compound]
[3]
  density of pNF-H-positive axons per MAP2-positive neuron, control groups: significantly increased
  density of pNF-H-positive axons per MAP2-positive neuron, 1,25D3-MARRS knockdown groups: did not show any difference

## C[C@@H]([C@H]1CC[C@H]2[C@@H]3CC=C4C[C@@H](O)CC[C@]4(C)[C@H]3CC[C@]12C)[C@H]1CC=C(CO)C(=O)O1 [denosomin]
[3]
  density of pNF-H-positive axons per MAP2-positive neuron, control groups: significantly increased
  density of pNF-H-positive axons per MAP2-positive neuron, 1,25D3-MARRS knockdown groups: almost completely inhibited

## C[C@@H]1CC[C@@]2(OC1)O[C@H]1C[C@H]3[C@@H]4CC=C5C[C@@H](O[C@@H]6O[C@H](CO)[C@@H](O[C@@H]7O[C@@H](C)[C@H](O)[C@@H](O)[C@H]7O)[C@H](O)[C@H]6O[C@@H]6O[C@@H](C)[C@H](O)[C@@H](O)[C@H]6O)CC[C@]5(C)[C@H]4CC[C@]3(C)[C@H]1[C@@H]2C [dioscin]
5XFAD mice [1]; dioscin 30 μmol/kg/day orally 6 days, one hour training-test interval
  behavior index of exploratory behavior for the novel object: higher than 50%
[4]; 5XFAD mice, dioscin 30 μmol/kg/day orally 6 days
  body weight: None of the groups showed marked change
[4]; normal ddY mice, dioscin 30 μmol/kg/day orally 4 days
  transition of body weight: no significant difference
Normal mice
  behavior index of exploratory behavior for the novel object: higher than 50%
